Measured values reported in paper PMC7743948, “D-LL-31 enhances biofilm-eradicating effect of currently used antibiotics for chronic rhinosinusitis and its immunomodulatory activity on human lung epithelial cells” (PLoS ONE, 2020).
pIC50: −log10 of the molar value. Values joined by “and” are separate entries in the source; they are usually repeats but may differ in a detail not shown here. Identical values can stand only once. Like-named read-outs stand apart in the source and are kept apart here. Ends that are not written are not given here.

How the values were obtained:
K. pneumoniae [1] = test: Disc antimicrobial susceptibility test (BD BBL Sensi-Disc); type: cell-based, Klebsiella pneumoniae; parameters: key: Susceptible; Intermediate; Resistant; settings: 24 h
Experimental: (§1) Supplementary file pone.0243315.s001.docx: S1 Table Antimicrobial susceptibility test results of reference strain and representative bacteria used from CRS patients. Bacterial suspensions were incubated with antibiotics for 24 h and the results were interpreted according to BD BBL™ Sensi-Disc™ antimicrobial susceptibility test discs. (DOCX) Click here for additional data file.
(§2) Antibiotics susceptibility testing was performed using BD BBL™ Sensi-Disc™ antimicrobial susceptibility test discs (Becton, Dickinson and Company, Franklin Lakes, NJ) and the results were interpreted according to the manufacturer's instructions.

S. epidermidis [2] = test: as above; type: cell-based, Staphylococcus epidermidis; parameters: key: Susceptible; Intermediate; Resistant; settings: 24 h
Experimental: as §1, §2

S. epidermidis biofilm [3] = test: Checkerboard synergy of D-LL-31 with antibiotics on biofilm; type: cell-based, Staphylococcus epidermidis; settings: Staphylococcus epidermidis, read-out: Antimicrobial agent in concentration of combination
Experimental: (§3) Bacterial viability in each interaction was determined using the plate count technique. The fractional inhibitory concentration index (FICI) values were calculated and interpreted in terms of synergism/antagonism as previously described. Each experiment was performed independently three times in duplicate.

K. pneumoniae biofilm [4] = test: as above; type: cell-based, Klebsiella pneumoniae; settings: Klebsiella pneumoniae, read-out: Antimicrobial agent in concentration of combination
Experimental: as §3

[5] = tested on: all strains (bacteria isolated from CRS patients); test: Broth microdilution susceptibility, statement for all strains; type: cell-based; settings: planktonic form
Experimental: (§4) MICs and MBCs of conventional antibiotics were determined using a broth microdilution technique. […] Only P. aeruginosa was additionally tested for susceptibility to TOB (Sigma-Aldrich) (0.03–52 μM or 0.01–25 μg/ml). Bacterial suspensions (5 x 10^5 CFU/ml) were added to the microtiter plates, which were then incubated at 37 °C for 24 h. Antibiotic-free culture was used as a control. After incubation, MIC values were observed according to the guidelines of the Clinical & Laboratory Standards Institute (CLSI). The results were confirmed using a microplate reader at OD620 (Sunrise™, TECAN, Australia). The plate count technique was further used to determine the MBC values on Mueller Hinton agar (MHA) (Himedia®). Each experiment was performed independently three times in triplicate.

P. aeruginosa biofilm [6] = test: Checkerboard synergy of D-LL-31 with antibiotics on biofilm; type: cell-based, Pseudomonas aeruginosa
Experimental: as §3

K. pneumoniae [7] = test: Broth microdilution MIC/MBC of conventional antibiotics, planktonic form; type: cell-based, Klebsiella pneumoniae; settings: for MBC: broth microdilution then plate count on MHA; for MIC: broth microdilution, MHB, 5 x 10^5 CFU/ml, 37 °C, 24 h, CLSI
Experimental: as §4, with “After incubation, MIC values were observed according to the guidelines of the Clinical & Laboratory Standards Institute (CLSI).” left out

P. aeruginosa biofilm [8] = test: microbe, parasite or virus in culture; settings: for IC50: Pseudomonas aeruginosa, read-out: IC50 value
Experimental: (§5) The effects of both conventional antibiotics and AMPs against bacteria under biofilm-stimulating condition were determined using a transferable solid phase (TSP) pin lid, which resembles the ‘Calgary’ biofilm device as previously described with some modifications. Each strain (10^7 CFU/ml) was added to sterile 96-well plates (Nunclon™), then covered by a TSP pin lid (NUNC™, Roskilde, Denmark), and further incubated at 37 °C for 24 h. […] Additionally, the effect of TOB (2–836 μM or 1–391 μg/ml) against P. aeruginosa biofilm was also investigated. Then the plates were statically incubated at 37 °C for 24 h. A well free of antimicrobial agent was used as a control. After 24 h, bacterial survival was determined using the plate count technique on NA (Himedia®). The percentage killing of each antimicrobial agent was calculated using the formula [1 − (CFU sample/CFU control)] × 100% [15, 19]. […] Each experiment was performed independently three times in duplicate.

K. pneumoniae biofilm [9] = test: microbe, parasite or virus in culture
Experimental: as §5

S. epidermidis biofilm [10] = test: microbe, parasite or virus in culture
Experimental: as §5

[11] = tested on: S. epidermidis biofilm matrix; test: Biofilm matrix reduction (AAA-model, CLSM, COMSTAT biomass); type: cell-based, Staphylococcus epidermidis; settings: AMX alone at IC50 (33092 μM), 24 h, P < 0.05
Experimental: Briefly, 1.5 ml of each overnight culture (10^8 CFU/ml) was added to a 24-well tissue culture plate (Nunclon™). The plate was covered with a sterile stainless-steel lid containing glass coverslips and aerobically incubated at 37°C for 24 h. […] All tested conditions were incubated at 37°C for 24 h. A well free of antimicrobial agent was used as a control. Following incubation, biofilms were fixed with 2.5% glutaraldehyde (Sigma-Aldrich) at 25°C for 3 h. The fixed bacterial biofilms on glass coverslips were stained with 50 μg/ml Alexa Fluor® 488 (Invitrogen, Carlsbad, CA) for 30 min. This stain reacts with exopolysaccharide matrixes of the biofilm. The glass coverslips were then mounted with 80% glycerol and the stained cells were photographed using a confocal laser-scanning microscope (CLSM) (TCS SP8-Leica Microsystems, Wetzlar, Germany). […] Each experiment was performed independently three times in duplicate.

S. epidermidis [12] = test: Broth microdilution MIC/MBC of conventional antibiotics, planktonic form; type: cell-based, Staphylococcus epidermidis; settings: MHB, 5 x 10^5 CFU/ml, 37 °C, 24 h, CLSI
Experimental: as §4, with “After incubation, MIC values were observed according to the guidelines of the Clinical & Laboratory Standards Institute (CLSI).” left out

P. aeruginosa ATCC27853 = test: Disc antimicrobial susceptibility test (BD BBL Sensi-Disc); type: cell-based, Pseudomonas aeruginosa; parameters: key: Susceptible; Intermediate; Resistant; settings: 24 h
Experimental: as §1, §2

P. aeruginosa [13] = test: as above; type: cell-based, Pseudomonas aeruginosa; parameters: key: Susceptible; Intermediate; Resistant; settings: 24 h
Experimental: as §1, §2

P. aeruginosa [14] = test: Broth microdilution MIC/MBC of conventional antibiotics, planktonic form; type: cell-based, Pseudomonas aeruginosa; settings: for MBC: broth microdilution then plate count on MHA, planktonic
Experimental: as §4, with “After incubation, MIC values were observed according to the guidelines of the Clinical & Laboratory Standards Institute (CLSI).” left out

[15] = tested on: reference strain P. aeruginosa ATCC 27853; test: Killing of planktonic bacteria (CFU count); type: cell-based, Pseudomonas aeruginosa
Experimental: (§6) A bacterial suspension without peptide served as a control. The samples were then serially diluted and cultivated on NA (Himedia®) and incubated for 24 h to allow colony counting. The percentage killing by each AMP was calculated using the formula [1 − (CFU sample/CFU control)] × 100% [15, 36]. Each experiment was performed independently three times in duplicate.

[16] = tested on: clinical isolate P. aeruginosa; test: Killing of planktonic bacteria (CFU count); type: cell-based, Pseudomonas aeruginosa; settings: 1–2 h
Experimental: as §6

[17] = highest concentration of AMX (68418 μM or 25000 μg/ml), 24 h biofilm, 24 h

## CC1(C)S[C@@H]2[C@H](NC(=O)[C@H](N)c3ccccc3)C(=O)N2[C@H]1C(=O)O [AMP, Ampicillin]
K. pneumoniae [1]
  antimicrobial susceptibility: R
S. epidermidis [2]
  antimicrobial susceptibility: R

## CC1(C)S[C@@H]2[C@H](NC(=O)[C@H](N)c3ccc(O)cc3)C(=O)N2[C@H]1C(=O)O [AMX, amoxicillin]
S. epidermidis biofilm [3]; 24 h
  pIC50: 2.68
S. epidermidis biofilm [3]
  IC50: 756 µg/mL
K. pneumoniae biofilm [4]; 24 h
  pIC50: 3.31
K. pneumoniae biofilm [4]
  IC50: 181 µg/mL
[5]
  susceptibility in words: Resistance
P. aeruginosa biofilm [6]; Pseudomonas aeruginosa, 24 h; read-out: Antimicrobial agent in concentration of combination
  pIC50: 2.55
P. aeruginosa biofilm [6]; Pseudomonas aeruginosa; read-out: Antimicrobial agent in concentration of combination
  IC50: 1030 µg/mL
K. pneumoniae [7]; Klebsiella pneumoniae, read-out: MBC
  MBC: 8.55 mM
K. pneumoniae [7]; Klebsiella pneumoniae, three independent experiments in triplicate, read-out: MIC
  MIC: 4.28 mM
K. pneumoniae [7]
  MBC: 3125 µg/mL
  MIC: 1562.5 µg/mL
P. aeruginosa biofilm [8]; 24 h
  IC50: 45.2 mM and 16500 µg/mL
P. aeruginosa biofilm [8]; biofilm
  IC50 of AMX higher than that of D-LL-31: about 11000 fold
P. aeruginosa biofilm [8]; [17]
  killing activity: 70%
K. pneumoniae biofilm [9]; Klebsiella pneumoniae, 24 h, read-out: IC50 value
  IC50: 7.92 mM and 2900 µg/mL
K. pneumoniae biofilm [9]; biofilm
  IC50 of AMX higher than that of D-LL-31: ~13000 fold
K. pneumoniae biofilm [9]; [17]
  killing activity: 90%
S. epidermidis biofilm [10]; Staphylococcus epidermidis, 24 h, read-out: IC50 value
  IC50: 33.1 mM and 12100 µg/mL
S. epidermidis biofilm [10]; biofilm
  IC50 of AMX higher than that of D-LL-31: ~66000 fold
S. epidermidis biofilm [10]; [17]
  killing activity: 75%
[11]
  effect on biofilm biomass: significant effect
S. epidermidis [12]
  MIC: 1562.5 µg/mL
S. epidermidis [12]; Staphylococcus epidermidis, read-out: MIC
  MIC: 4.28 mM

## O=C(N[C@H](CO)[C@H](O)c1ccc([N+](=O)[O-])cc1)C(Cl)Cl [CHL, Chloramphenicol]
K. pneumoniae [1]
  antimicrobial susceptibility: S
P. aeruginosa ATCC27853
  antimicrobial susceptibility: S
P. aeruginosa [13]
  antimicrobial susceptibility: R
S. epidermidis [2]
  antimicrobial susceptibility: S

## CO/N=C(\C(=O)N[C@@H]1C(=O)N2C(C(=O)O)=C(CSc3nc(=O)c(=O)[nH]n3C)CS[C@H]12)c1csc(N)n1 [CRO, Ceftriaxone]
K. pneumoniae [1]
  antimicrobial susceptibility: S
P. aeruginosa ATCC27853
  antimicrobial susceptibility: S
P. aeruginosa [13]
  antimicrobial susceptibility: R
S. epidermidis [2]
  antimicrobial susceptibility: S

## CC[C@H]1OC(=O)[C@H](C)[C@@H](O[C@H]2C[C@@](C)(OC)[C@@H](O)[C@H](C)O2)[C@H](C)[C@@H](O[C@@H]2O[C@H](C)C[C@H](N(C)C)[C@H]2O)[C@](C)(O)C[C@@H](C)C(=O)[C@H](C)[C@@H](O)[C@]1(C)O [ERY, Erythromycin]
S. epidermidis [2]
  antimicrobial susceptibility: R

## CNC(C)C1CCC(N)C(OC2C(N)CC(N)C(OC3OCC(C)(O)C(NC)C3O)C2O)O1 (centres unmarked) [GEN, Gentamicin]
K. pneumoniae [1]
  antimicrobial susceptibility: I
P. aeruginosa ATCC27853
  antimicrobial susceptibility: S
P. aeruginosa [13]
  antimicrobial susceptibility: I
S. epidermidis [2]
  antimicrobial susceptibility: S

## NC[C@H]1O[C@H](O[C@H]2[C@H](O)[C@@H](O[C@H]3O[C@H](CO)[C@@H](O)[C@H](N)[C@H]3O)[C@H](N)C[C@@H]2N)[C@H](O)[C@@H](O)[C@@H]1O [KAN, Kanamycin]
K. pneumoniae [1]
  antimicrobial susceptibility: S
S. epidermidis [2]
  antimicrobial susceptibility: S

## Cc1onc(-c2ccccc2)c1C(=O)N[C@@H]1C(=O)N2[C@@H]1SC(C)(C)[C@@H]2C(=O)O [OXA, Oxacillin]
S. epidermidis [2]
  antimicrobial susceptibility: S

## CN(C)[C@@H]1C(O)=C(C(N)=O)C(=O)[C@@]2(O)C(O)=C3C(=O)c4c(O)cccc4[C@@](C)(O)[C@H]3C[C@@H]12 [TET, Tetracycline]
K. pneumoniae [1]
  antimicrobial susceptibility: I
P. aeruginosa ATCC27853
  antimicrobial susceptibility: S
P. aeruginosa [13]
  antimicrobial susceptibility: R
S. epidermidis [2]
  antimicrobial susceptibility: S

## NC[C@H]1O[C@H](O[C@H]2[C@H](O)[C@@H](O[C@H]3O[C@H](CO)[C@@H](O)[C@H](N)[C@H]3O)[C@H](N)C[C@@H]2N)[C@H](N)C[C@@H]1O [TOB, tobramycin]
K. pneumoniae [1]
  antimicrobial susceptibility: S
P. aeruginosa ATCC27853
  antimicrobial susceptibility: S
P. aeruginosa [13]
  antimicrobial susceptibility: S
P. aeruginosa [14]; Pseudomonas aeruginosa, read-out: MBC
  MBC: 0.001 mM
P. aeruginosa [14]
  MBC: 0.4 µg/mL
P. aeruginosa [14]; planktonic form
  susceptibility in words: susceptible
P. aeruginosa biofilm [6]; D-LL-31 combined with TOB; IC50 alone compared with concentration of combination
  Fold decrease of IC50 values: 16 fold
P. aeruginosa biofilm [6]; Pseudomonas aeruginosa, 24 h, read-out: Antimicrobial agent in concentration of combination
  pIC50: 6.70
P. aeruginosa biofilm [6]; Pseudomonas aeruginosa, read-out: Antimicrobial agent in concentration of combination
  IC50: 0.1 µg/mL
[15]; 1 μM, 1 h
  killing effect: ≥ 98%
[15]; 5 and 10 μM, within 1 h
  killing of bacterial cells, in words: killed all bacterial cells
[16]; 1 and 5 μM
  killing effect: ≥ 92%
[16]; planktonic
  concentration required to kill all bacterial cells: 10 µM
P. aeruginosa biofilm [8]; 24 h biofilm, 24 h
  sensitivity of biofilm, in words: sensitive
P. aeruginosa biofilm [8]; 24 h
  IC50: 4 µM and 2 µg/mL
S. epidermidis [2]
  antimicrobial susceptibility: S

## LLGDFFRKSKEKIGKEFKRIVQRIKDFLRNL [LL-31]
P. aeruginosa biofilm [8]; biofilm, 24 h
  pIC50: 5.28
K. pneumoniae biofilm [9]; biofilm, 24 h
  pIC50: 6.15
S. epidermidis biofilm [10]; biofilm, 24 h
  pIC50: 5.74

## Penicillin
S. epidermidis [2]
  antimicrobial susceptibility: S
